{"source": "paper PMC6838142", "about": "“Nano-Antagonist Alleviates Inflammation and Allows for MRI of Atherosclerosis” (Nanotheranostics, 2019)", "key": {"[1]": {"tested_on": "NF-kB", "test": "Nanoparticle screening: NFkB activation in RAW-Blue reporter cells", "format": "cell-based, mouse", "protocol": "A schematic representation of nanoparticle screening is depicted in Supplementary Figure S4. Briefly, RAW-Blue NFkB reporter cells were cultured as per the manufacturer's recommendations. Cells were seeded and cultured overnight in black opaque 96-well plates with a clear bottom at 50,000 per well. Cells were then treated with 1 and 10 µM of nanoparticles containing 1% rhodamine and positive and negative controls (see below) for 30 min on ice followed by washing steps with cold PBS. Next, lipopolysaccharide (LPS) was added at 100 ng/mL and incubated for 6 h at 37 °C, following which the cells were washed again and incubated for 18 h at 37 °C in fresh medium. Next, 20 µL of supernatant was collected and assayed using SEAP detection reagent in a separate clear bottom 96-well plate as per Invivogen instructions (http://www.invivogen.com). Absorbance at OD 650 nm was recorded and was indicative of NFkB activation. In parallel, cells in the opaque plate were washed again and fluorescence was read at 550 nm excitation and 620 nm emission. This signal from rhodamine was indicative of nanoparticle uptake. […] All analysis was performed using Molecular Devices i3 multi-mode plate reader and SoftMax Pro software version 6.2 (Molecular Devices)."}, "[2]": {"tested_on": "BMDMs", "test": "DCFDA ROS assay", "format": "cell-based, mouse", "conditions": "LPS (100 ng/mL) BMDMs, 12 experiments", "protocol": "GSH /GSSG, lactate dehydrogenase (LDH) and DCFDA assays were performed according to the manufacturer's instructions. The assays were purchased from vendors as indicated in Supplemental Table S1."}, "[3]": {"tested_on": "RAW cells"}}, "note": "“Also recorded” adds a separate entry of the source."}
{"substance": "CCTV", "values": [{"measurement": "NF-kB activity compared with dexamethasone", "setting": "[1]; 10 µM nanoparticles vs Dex 1 mM, LPS 100 ng/mL", "result": "almost to the same level as that in cells treated with NF-kB inhibitor dexamethasone (Dex) at 1 mM"}, {"measurement": "NF-kB activity", "setting": "[1]; 1 and 10 µM nanoparticles, 30 min on ice, LPS 100 ng/mL 6 h, SEAP OD 650 nm", "result": "significantly downregulated NF-kB activity"}, {"measurement": "ROS production", "setting": "[2]", "result": "inhibited ROS production in response to LPS; also recorded: significantly blunted"}, {"measurement": "toxicity of SH-conjugated nanoparticles", "setting": "[3]", "result": "very low toxicity"}]}
